Measured values as given in ChEMBL document CHEMBL1124976, “An initial three-component pharmacophore for specific serotonin-3 receptor ligands” (J Med Chem, 1990).

Columns and labels:
[1] = target: Serotonin 3 (5-HT3) receptor (Rattus norvegicus) (UniProt P35563+Q9JJ16); assay: Tested for inhibition of Bezold-Jarisch (B-J) reflex mediated by 5-hydroxytryptamine 3 receptor in rats after intravenous administration (2.0 ug/kg); format: functional, organism-based
[2] = target: T1, 5-hydroxytryptamine receptor 3B (Mus musculus, UniProt Q9JHJ5); assay: In vitro binding affinity for the 5-hydroxytryptamine 3 receptor was determined with NG-108-15 mouse neuroblastoma-glioma cells
T1 sequence (Q9JHJ5 whole entry): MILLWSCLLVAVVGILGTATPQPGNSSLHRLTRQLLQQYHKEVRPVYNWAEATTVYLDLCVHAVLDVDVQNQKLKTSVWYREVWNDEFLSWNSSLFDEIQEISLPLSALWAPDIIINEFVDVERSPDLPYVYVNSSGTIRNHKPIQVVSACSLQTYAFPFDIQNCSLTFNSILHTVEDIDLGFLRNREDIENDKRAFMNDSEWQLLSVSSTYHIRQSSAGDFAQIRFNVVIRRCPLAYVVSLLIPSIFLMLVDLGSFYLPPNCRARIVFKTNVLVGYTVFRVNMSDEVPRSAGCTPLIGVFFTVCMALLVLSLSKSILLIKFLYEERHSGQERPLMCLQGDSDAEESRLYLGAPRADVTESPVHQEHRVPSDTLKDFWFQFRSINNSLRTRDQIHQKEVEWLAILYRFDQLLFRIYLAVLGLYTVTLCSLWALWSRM

[3] = target: 5-hydroxytryptamine receptor 3A (Mus musculus) (UniProt P23979); assay: In vitro binding affinity for the 5-hydroxytryptamine 3 receptor was determined with NG-108-15 mouse neuroblastoma-glioma cells
Chain of 5-hydroxytryptamine receptor 3A (Mus musculus) (P23979 whole entry, looked up): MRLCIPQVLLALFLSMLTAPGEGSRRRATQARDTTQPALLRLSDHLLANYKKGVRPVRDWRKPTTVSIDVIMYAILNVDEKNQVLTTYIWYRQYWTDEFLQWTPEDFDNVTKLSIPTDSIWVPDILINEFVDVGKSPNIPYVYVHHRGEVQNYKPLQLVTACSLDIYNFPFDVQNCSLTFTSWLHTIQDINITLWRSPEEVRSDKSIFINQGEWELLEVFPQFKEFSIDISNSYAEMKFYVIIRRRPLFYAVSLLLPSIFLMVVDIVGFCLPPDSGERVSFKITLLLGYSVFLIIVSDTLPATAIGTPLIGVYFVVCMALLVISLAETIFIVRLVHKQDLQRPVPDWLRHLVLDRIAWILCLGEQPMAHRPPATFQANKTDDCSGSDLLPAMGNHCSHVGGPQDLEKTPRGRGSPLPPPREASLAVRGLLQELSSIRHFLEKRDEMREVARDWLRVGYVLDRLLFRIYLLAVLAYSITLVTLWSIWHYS

SMILES | inhibition [1] | Ki [3] | Ki [2]
COc1cc(N)c(Cl)cc1C(=O)NC1CN2CCC1CC2 (stereo not drawn) | 84% |  | 
N=C(N)NCc1ccccn1 |  |  | 82 nM
Cc1nccn1CC1CCc2c(c3ccccc3n2C)C1=O (stereo not drawn) | 43% |  | 
N=C(N)NCc1nc(-c2c[nH]c3ccccc23)cs1 | 51% | 3.3 nM | 
CN(Cc1nc(-c2c[nH]c3ccccc23)cs1)C(=N)N |  |  | > 1 nM
Cc1csc(CNC(=N)N)n1 |  |  | 116 nM
Cc1nc[nH]c1Cc1nc(-c2c[nH]c3ccccc23)cs1 |  |  | 10 nM
